# Measurements: US20240228458A1, “PYRIMIDINE DERIVATIVE HAVING PROTEIN KINASE INHIBITORY ACTIVITY, AND THERAPEUTIC PHARMACEUTICAL COMPOSITION COMPRISING SAME” (THERAPEX CO., LTD., priority 2021, published 2024)
# Tests used:
# Type in all cases: cell-based
# [1] = test system: Ba/F3 cells expressing EGFR-wt; assay: Growth inhibition (GI50) of Ba/F3 cells expressing EGFR-wt, Celltiter glo; settings: Mus musculus, BaF3, 72 h
# Procedure, shortened: (§1)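 Ba/F3 cells carrying each EGFR variant were plated at 100,000 cells/ml; after 4 h, compound was added as 10-point 4-fold dilutions (top stock 2 mM, 0.5% DMSO). After 72 h at 37 °C, viability was read by CellTiter-Glo; GI50 is the molar concentration (μM) giving 50% growth inhibition.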
# [2] = test system: parental Ba/F3 cell line; assay: Growth inhibition (GI50) of the parental Ba/F3 cell line (not introduced with EGFR variants), Celltiter glo; settings: Mus musculus, BaF3, 72 h, parental Ba/F3 cells
# Procedure, shortened: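 Parental Ba/F3 cells (100,000 cells/ml) were treated with 10-point, 4-fold compound dilutions (0.5% DMSO; top stock 2 mM) for 72 h at 37 °C, 5% CO2. Viability was read by CellTiter-Glo; GI50 is the concentration (μM) giving 50% growth inhibition.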
# [3] = test system: Ba/F3 cells expressing del19/T790M/C797S (EGFR-DTC); assay: Growth inhibition (GI50) of Ba/F3 cells expressing del19/T790M/C797S (EGFR-DTC), Celltiter glo; settings: Mus musculus, BaF3, 72 h
# Procedure, shortened: as §1
# [4] = test system: Ba/F3 cells expressing L858R/T790M/C797S (EGFR-LTC); assay: Growth inhibition (GI50) of Ba/F3 cells expressing L858R/T790M/C797S (EGFR-LTC), Celltiter glo; settings: Mus musculus, BaF3, 72 h
# Procedure, shortened: as §1
SMILES,GI50 [1] [nM],GI50 [3] [nM],GI50 [4] [nM],GI50 [2] [nM]
"COc1nc(N2CCC(N3CCN(C)CC3)CC2)c(C)cc1Nc1ncc(Cl)c(Nc2ccc3nccnc3c2P(C)(C)=O)n1 [Example 122, (6-((5-chloro-2-((2-methoxy-5-methyl-6-(4-(4-methylpiperazin-1-yl)piperidin-1-yl)pyridin-3-yl)amino)pyrimidin-4-yl)amino)quinoxalin-5-yl)dimethylphosphine oxide]",100 to 500,100 to 500,25 to 100,500 to 2000
"CN1CCN(C2CCN(c3ccc(Nc4ncc(Cl)c(Nc5ccc6nccnc6c5P(C)(C)=O)n4)cc3F)CC2)CC1 [Example 125, (6-((5-chloro-2-((3-fluoro-4-(4-(4-methylpiperazin-1-yl)piperidin-1-yl)phenyl)amino)pyrimidin-4-yl)amino)quinoxalin-5-yl)dimethylphosphine oxide]",100 to 500,25 to 100,100 to 500,100 to 500
"COc1nc(N2C[C@@H](C)N(C)[C@@H](C)C2)ccc1Nc1ncc(Cl)c(Nc2ccc3nccnc3c2P(C)(C)=O)n1 [Example 126, (6-((5-chloro-2-((2-methoxy-6-((3S,5R)-3,4,5-trimethylpiperazin-1-yl)pyridin-3-yl)amino)pyrimidin-4-yl)amino)quinoxalin-5-yl)dimethylphosphine oxide]",2000 to 10000,100 to 500,500 to 2000,2000 to 10000
"COc1nc(N2CCC(N(C)C)C2)ccc1Nc1ncc(Cl)c(Nc2ccc3nccnc3c2P(C)(C)=O)n1 (stereo not shown) [Example 127, (6-((5-chloro-2-((6-(3-(dimethylamino)pyrrolidin-1-yl)-2-methoxypyridin-3-yl)amino)pyrimidin-4-yl)amino)quinoxalin-5-yl)dimethylphosphine oxide]",> 10000,2000 to 10000,2000 to 10000,> 10000
"COc1nc(N2CCNCC2)ccc1Nc1ncc(Cl)c(Nc2ccc3nccnc3c2P(C)(C)=O)n1 [Example 128, (6-((5-chloro-2-((2-methoxy-6-(piperazin-1-yl)pyridin-3-yl)amino)pyrimidin-4-yl)amino)quinoxalin-5-yl)dimethylphosphine oxide]",2000 to 10000,500 to 2000,500 to 2000,2000 to 10000
"COc1nc(N2CCC(N3CCN(C)CC3)CC2)ccc1Nc1ncc(Cl)c(Nc2ccc3nccnc3c2NS(C)(=O)=O)n1 [Example 132, N-(6-((5-chloro-2-((2-methoxy-6-(4-(4-methylpiperazin-1-yl)piperidin-1-yl)pyridin-3-yl)amino)pyrimidin-4-yl)amino)quinoxalin-5-yl)methanesulfonamide]",500 to 2000,100 to 500,100 to 500,500 to 2000
"COc1cc(N2CCC(N3CCN(C)CC3)CC2)c(Cl)cc1Nc1ncc(Cl)c(Nc2ccc3nccnc3c2NS(C)(=O)=O)n1 [Example 136, N-(6-((5-chloro-2-((5-chloro-2-methoxy-4-(4-(4-methylpiperazin-1-yl)piperidin-1-yl)phenyl)amino)pyrimidin-4-yl)amino)quinoxalin-5-yl)methanesulfonamide]",500 to 2000,100 to 500,100 to 500,500 to 2000
"COc1cc(N2CCC(N3CCN(C)CC3)CC2)c(Cl)cc1Nc1ncc(Cl)c(Nc2cc(C(F)(F)F)ccc2NS(C)(=O)=O)n1 [Example 137, N-(2-((5-chloro-2-((5-chloro-2-methoxy-4-(4-(4-methylpiperazin-1-yl)piperidin-1-yl)phenyl)amino)pyrimidin-4-yl)amino)-4-(trifluoromethyl)phenyl)methanesulfonamide]",500 to 2000,100 to 500,100 to 500,2000 to 10000
"COc1cc(N2CCC(N3CCN(C)CC3)CC2)c(C)cc1Nc1ncc(Cl)c(Nc2cc(C(F)(F)F)ccc2NS(C)(=O)=O)n1 [Example 138, N-(2-((5-chloro-2-((2-methoxy-5-methyl-4-(4-(4-methylpiperazin-1-yl)piperidin-1-yl)phenyl)amino)pyrimidin-4-yl)amino)-4-(trifluoromethyl)phenyl)methanesulfonamide]",2000 to 10000,100 to 500,100 to 500,500 to 2000
"COc1cc(N2CCC(N3CCN(C4CC4)CC3)CC2)c(C)cc1Nc1ncc(Cl)c(Nc2cc(C(F)(F)F)ccc2NS(C)(=O)=O)n1 [Example 139, N-(2-((5-chloro-2-((4-(4-(4-cyclopropylpiperazin-1-yl)piperidin-1-yl)-2-methoxy-5-methylphenyl)amino)pyrimidin-4-yl)amino)-4-(trifluoromethyl)phenyl)methanesulfonamide]",2000 to 10000,500 to 2000,500 to 2000,500 to 2000
"COc1cc(N2CCC(N3CCN(C)CC3)CC2)c(C)cc1Nc1nc(N)c(Cl)c(Nc2ccc(F)cc2NS(C)(=O)=O)n1 [Example 141, N-(2-((6-amino-5-chloro-2-((2-methoxy-5-methyl-4-(4-(4-methylpiperazin-1-yl)piperidin-1-yl)phenyl)amino)pyrimidin-4-yl)amino)-5-fluorophenyl)methanesulfonamide]",500 to 2000,500 to 2000,500 to 2000,> 10000
"COc1nc(C2CCCN(C)CC2)ccc1Nc1ncc(Br)c(Nc2ccc(F)cc2NS(C)(=O)=O)n1 (stereo not shown) [Example 145, N-(2-((5-bromo-2-((2-methoxy-6-(1-methylazepan-4-yl)pyridin-3-yl)amino)pyrimidin-4-yl)amino)-5-fluorophenyl)methanesulfonamide]",2000 to 10000,100 to 500,100 to 500,2000 to 10000
"COc1cc(N2CCC(N3CCN(C)CC3)CC2)c(F)cc1Nc1ncc(Br)c(Nc2ccc(F)cc2NS(C)(=O)=O)n1 [Example 146, N-(2-((5-bromo-2-((5-fluoro-2-methoxy-4-(4-(4-methylpiperazin-1-yl)piperidin-1-yl)phenyl)amino)pyrimidin-4-yl)amino)-5-fluorophenyl)methanesulfonamide]",500 to 2000,100 to 500,100 to 500,2000 to 10000
COc1cc(N2CCC(N3CCN(C)CC3)CC2)c(Cl)cc1Nc1ncc(Cl)c(Nc2cc(Cl)ccc2-c2cnn[nH]2)n1 [Example 186],25 to 100,25 to 100,25 to 100,100 to 500

# More lines, main results first:
GI50 [1] [nM],GI50 [3] [nM],GI50 [4] [nM],SMILES,GI50 [2] [nM]
2000 to 10000,2000 to 10000,2000 to 10000,"COc1nc(N2CCC(N3CCN(C)CC3)CC2)c(C)cc1Nc1ncc(Cl)c(N(C)c2ccccc2NS(C)(=O)=O)n1 [Example 121, N-(2-((5-chloro-2-((2-methoxy-5-methyl-6-(4-(4-methylpiperazin-1-yl)piperidin-1-yl)pyridin-3-yl)amino)pyrimidin-4-yl)(methyl)amino)phenyl)methanesulfonamide]",> 10000
500 to 2000,100 to 500,100 to 500,"COc1nc(N2CCC(N3CCN(C)CC3)CC2)ccc1Nc1ncc(Cl)c(Nc2ccc3nccnc3c2P(C)(C)=O)n1 [Example 123, (6-((5-chloro-2-((2-methoxy-6-(4-(4-methylpiperazin-1-yl)piperidin-1-yl)pyridin-3-yl)amino)pyrimidin-4-yl)amino)quinoxalin-5-yl)dimethylphosphine oxide]",2000 to 10000
100 to 500,25 to 100,25 to 100,"CN1CCN(C2CCN(c3ncc(Nc4ncc(Cl)c(Nc5ccc6nccnc6c5P(C)(C)=O)n4)cc3F)CC2)CC1 [Example 124, (6-((5-chloro-2-((5-fluoro-6-(4-(4-methylpiperazin-1-yl)piperidin-1-yl)pyridin-3-yl)amino)pyrimidin-4-yl)amino)quinoxalin-5-yl)dimethylphosphine oxide]",100 to 500
2000 to 10000,2000 to 10000,2000 to 10000,"COc1nc(N2CCS(=O)(=O)CC2)ccc1Nc1ncc(Cl)c(Nc2ccc3nccnc3c2P(C)(C)=O)n1 [Example 129, 4-(5-((5-chloro-4-((5-(dimethylphosphoryl)quinoxalin-6-yl)amino)pyrimidin-2-yl)amino)-6-methoxypyridin-2-yl)thiomorpholine 1,1-dioxide]",> 10000
500 to 2000,100 to 500,100 to 500,"COc1cc(N2CCC(N3CCN(C)CC3)CC2)ccc1Nc1ncc(Cl)c(Nc2ccc3nccnc3c2NS(C)(=O)=O)n1 [Example 133, N-(6-((5-chloro-2-((2-methoxy-4-(4-(4-methylpiperazin-1-yl)piperidin-1-yl)phenyl)amino)pyrimidin-4-yl)amino)quinoxalin-5-yl)methanesulfonamide]",500 to 2000
500 to 2000,100 to 500,100 to 500,"COc1nc(N2C[C@@H](C)N(C)[C@@H](C)C2)ccc1Nc1ncc(Cl)c(Nc2ccc3nccnc3c2NS(C)(=O)=O)n1 [Example 135, N-(6-((5-chloro-2-((2-methoxy-6-((3S,5R)-3,4,5-trimethylpiperazin-1-yl)pyridin-3-yl)amino)pyrimidin-4-yl)amino)quinoxalin-5-yl)methanesulfonamide]",500 to 2000
100 to 500,1 to 25,1 to 25,COc1cc(N2CCC(N3CCN(C)CC3)CC2)c(C)cc1Nc1ncc(Cl)c(Nc2cc(Cl)ccc2-c2c[nH]nn2)n1 [Example 166],500 to 2000
500 to 2000,500 to 2000,25 to 100,Cc1cc(Nc2ncc(Cl)c(Nc3cc(Cl)ccc3-c3cnn[nH]3)n2)c(Cl)cc1N1CCC(N2CCN(C)CC2)CC1 [Example 185],500 to 2000
